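Values below derive from 48-hour exposures of cells grown in 96-well plates, with endpoints linearly interpolated between the two concentrations bracketing the appropriate inhibition level. Here, GI50 denotes the concentration required for 50% inhibition of growth.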 Activity calls are given as the source filed them. Rule as the data show it: active = GI50 up to about 1.1 µM and inactive = higher.
Tests used:
Test in all cases: DTP human tumour cell line panel, 48 h
786-0 = test system: 786-0
A498 = test system: A498
A549 = test system: A549
ACHN = test system: ACHN
BT-549 = test system: BT-549
CAKI-1 = test system: CAKI-1
CCRF-CEM = test system: CCRF-CEM
COLO 205 = test system: COLO 205
DU-145 = test system: DU-145
EKVX = test system: EKVX
HCC 2998 = test system: HCC 2998
HCT-116 = test system: HCT-116
HCT-15 = test system: HCT-15
HOP-62 = test system: HOP-62
HT-29 = test system: HT-29
Hs-578T = test system: Hs-578T
IGROV-1 = test system: IGROV-1
K562 = test system: K562
KM12 = test system: KM12
LOX IMVI = test system: LOX IMVI
M14 = test system: M14
MCF7 = test system: MCF7
MDA-MB-231 = test system: MDA-MB-231
MDA-MB-435 = test system: MDA-MB-435
MDA-N = test system: MDA-N
MOLT-4 = test system: MOLT-4
Malme-3M = test system: Malme-3M
NCI-H226 = test system: NCI-H226
NCI-H23 = test system: NCI-H23
NCI-H460 = test system: NCI-H460
NCI-H522 = test system: NCI-H522
NCI/ADR-RES = test system: NCI/ADR-RES
OVCAR-3 = test system: OVCAR-3
OVCAR-4 = test system: OVCAR-4
OVCAR-5 = test system: OVCAR-5
OVCAR-8 = test system: OVCAR-8
PC-3 = test system: PC-3
RPMI-8226 = test system: RPMI-8226
RXF 393 = test system: RXF 393
SF-268 = test system: SF-268
SF-295 = test system: SF-295
SK-MEL-28 = test system: SK-MEL-28
SK-MEL-2 = test system: SK-MEL-2
SK-MEL-5 = test system: SK-MEL-5
SK-OV-3 = test system: SK-OV-3
SN12C = test system: SN12C
SNB-19 = test system: SNB-19
SNB-75 = test system: SNB-75
SR = test system: SR
SW-620 = test system: SW-620
T47D = test system: T47D
TK-10 = test system: TK-10
U-251 = test system: U-251
UACC-257 = test system: UACC-257
UACC-62 = test system: UACC-62
UO-31 = test system: UO-31
HOP-92 = test system: HOP-92
HL-60 = test system: HL-60

Cc1c(C)c(S(=O)(=O)N(CCCN)OCCCN)c(C)c2c1OC(C)(C)C2
GI50 (786-0): 25.5 µM (inactive)
GI50 (A498): 18.8 µM (inactive)
GI50 (A549): 44.1 µM (inactive)
GI50 (ACHN): 29.6 µM (inactive)
GI50 (BT-549): 30.5 µM (inactive)
GI50 (CAKI-1): 34.4 µM (inactive)
GI50 (CCRF-CEM): 30 µM (inactive)
GI50 (COLO 205): 17.1 µM (inactive)
GI50 (DU-145): 30.6 µM (inactive)
GI50 (EKVX): 16.3 µM (inactive)
GI50 (HCC 2998): 19.5 µM (inactive)
GI50 (HCT-116): 35.3 µM (inactive)
GI50 (HCT-15): 68.7 µM
GI50 (HOP-62): 35.6 µM (inactive)
GI50 (HT-29): 45.8 µM (inactive)
GI50 (Hs-578T): 18.8 µM (inactive)
GI50 (IGROV-1): 22.9 µM (inactive)
GI50 (K562): 35 µM (inactive)
GI50 (KM12): 17.6 µM (inactive)
GI50 (LOX IMVI): 19.6 µM (inactive)
GI50 (M14): 18.1 µM (inactive)
GI50 (MCF7): 20.5 µM (inactive)
GI50 (MDA-MB-231): 14.8 µM (inactive)
GI50 (MDA-MB-435): 53.7 µM (inactive)
GI50 (MDA-N): 19 µM (inactive)
GI50 (MOLT-4): 20.4 µM (inactive)
GI50 (Malme-3M): 18.5 µM (inactive)
GI50 (NCI-H226): 72.1 µM (inactive)
GI50 (NCI-H23): 29.8 µM (inactive)
GI50 (NCI-H460): 36.8 µM (inactive)
GI50 (NCI-H522): 15.5 µM (inactive)
GI50 (NCI/ADR-RES): > 100 µM (inactive)
GI50 (OVCAR-3): 21.4 µM (inactive)
GI50 (OVCAR-4): 30.7 µM (inactive)
GI50 (OVCAR-5): 23.5 µM (inactive)
GI50 (OVCAR-8): 80.5 µM (inactive)
GI50 (PC-3): 17.7 µM (inactive)
GI50 (RPMI-8226): 42.3 µM (inactive)
GI50 (RXF 393): 15.2 µM (inactive)
GI50 (SF-268): 27.6 µM (inactive)
GI50 (SF-295): 29.8 µM (inactive)
GI50 (SK-MEL-28): 83.6 µM (inactive)
GI50 (SK-MEL-2): 9.64 µM (inactive)
GI50 (SK-MEL-5): 30.8 µM (inactive)
GI50 (SK-OV-3): 39.4 µM (inactive)
GI50 (SN12C): 61.1 µM (inactive)
GI50 (SNB-19): 15.4 µM (inactive)
GI50 (SNB-75): 17.3 µM (inactive)
GI50 (SR): 34.8 µM (inactive)
GI50 (SW-620): 27.5 µM (inactive)
GI50 (T47D): 32.6 µM (inactive)
GI50 (TK-10): 45.5 µM (inactive)
GI50 (U-251): 17.3 µM (inactive)
GI50 (UACC-257): 34.3 µM (inactive)
GI50 (UACC-62): 51.4 µM (inactive)
GI50 (UO-31): 33.4 µM (inactive)

Cc1nc(/C(=N\n2cnnc2)Nc2ccc(Br)cc2)no1
GI50 (786-0): > 100 µM (inactive)
GI50 (A498): > 100 µM (inactive)
GI50 (A549): > 100 µM (inactive)
GI50 (ACHN): > 100 µM (inactive)
GI50 (BT-549): > 100 µM (inactive)
GI50 (CAKI-1): > 100 µM (inactive)
GI50 (CCRF-CEM): > 100 µM (inactive)
GI50 (COLO 205): > 100 µM (inactive)
GI50 (DU-145): > 100 µM (inactive)
GI50 (EKVX): > 100 µM (inactive)
GI50 (HCC 2998): > 100 µM (inactive)
GI50 (HCT-116): > 100 µM (inactive)
GI50 (HCT-15): > 100 µM
GI50 (HOP-62): > 100 µM (inactive)
GI50 (HOP-92): > 100 µM (inactive)
GI50 (HT-29): > 100 µM (inactive)
GI50 (Hs-578T): > 100 µM (inactive)
GI50 (IGROV-1): > 100 µM (inactive)
GI50 (K562): 57.1 µM (inactive)
GI50 (KM12): > 100 µM (inactive)
GI50 (M14): > 100 µM (inactive)
GI50 (MCF7): > 100 µM (inactive)
GI50 (MDA-MB-231): > 100 µM (inactive)
GI50 (MDA-MB-435): > 100 µM (inactive)
GI50 (MDA-N): > 100 µM (inactive)
GI50 (MOLT-4): > 100 µM (inactive)
GI50 (Malme-3M): > 100 µM (inactive)
GI50 (NCI-H23): > 100 µM (inactive)
GI50 (NCI-H460): > 100 µM (inactive)
GI50 (NCI-H522): > 100 µM (inactive)
GI50 (NCI/ADR-RES): > 100 µM (inactive)
GI50 (OVCAR-3): > 100 µM (inactive)
GI50 (OVCAR-4): > 100 µM (inactive)
GI50 (OVCAR-5): > 100 µM (inactive)
GI50 (OVCAR-8): > 100 µM (inactive)
GI50 (PC-3): > 100 µM (inactive)
GI50 (RPMI-8226): > 100 µM (inactive)
GI50 (RXF 393): > 100 µM (inactive)
GI50 (SF-295): > 100 µM (inactive)
GI50 (SK-MEL-28): > 100 µM (inactive)
GI50 (SK-MEL-2): > 100 µM (inactive)
GI50 (SK-MEL-5): > 100 µM (inactive)
GI50 (SK-OV-3): > 100 µM (inactive)
GI50 (SNB-19): > 100 µM (inactive)
GI50 (SNB-75): 66.7 µM (inactive)
GI50 (SW-620): > 100 µM (inactive)
GI50 (T47D): > 100 µM (inactive)
GI50 (U-251): > 100 µM (inactive)
GI50 (UACC-257): > 100 µM (inactive)
GI50 (UACC-62): > 100 µM (inactive)
GI50 (UO-31): > 100 µM (inactive)

S=C1Nc2ccccc2SC1c1ccccc1 (stereo not given)
GI50 (786-0): 34.9 µM (inactive)
GI50 (A549): > 100 µM (inactive)
GI50 (ACHN): 69.3 µM (inactive)
GI50 (BT-549): > 100 µM (inactive)
GI50 (CAKI-1): > 100 µM (inactive)
GI50 (CCRF-CEM): 2.96 µM (inactive)
GI50 (COLO 205): > 100 µM (inactive)
GI50 (DU-145): > 100 µM (inactive)
GI50 (EKVX): > 100 µM (inactive)
GI50 (HCT-116): > 100 µM (inactive)
GI50 (HCT-15): > 100 µM
GI50 (HL-60): 5.22 µM (inactive)
GI50 (HOP-62): 24.8 µM (inactive)
GI50 (HT-29): > 100 µM (inactive)
GI50 (Hs-578T): 19.9 µM (inactive)
GI50 (IGROV-1): > 100 µM (inactive)
GI50 (K562): 94.8 µM (inactive)
GI50 (KM12): > 100 µM (inactive)
GI50 (LOX IMVI): 49.7 µM (inactive)
GI50 (M14): > 100 µM (inactive)
GI50 (MCF7): > 100 µM (inactive)
GI50 (MDA-MB-231): 66.1 µM (inactive)
GI50 (MDA-MB-435): > 100 µM (inactive)
GI50 (MDA-N): > 100 µM (inactive)
GI50 (MOLT-4): > 100 µM (inactive)
GI50 (Malme-3M): 92.3 µM (inactive)
GI50 (NCI-H226): 28.6 µM (inactive)
GI50 (NCI-H23): 74.6 µM (inactive)
GI50 (NCI-H460): > 100 µM (inactive)
GI50 (NCI-H522): > 100 µM (inactive)
GI50 (NCI/ADR-RES): 56.1 µM (inactive)
GI50 (OVCAR-3): 30.5 µM (inactive)
GI50 (OVCAR-4): 46 µM (inactive)
GI50 (OVCAR-5): > 100 µM (inactive)
GI50 (OVCAR-8): > 100 µM (inactive)
GI50 (PC-3): 57.9 µM (inactive)
GI50 (RPMI-8226): > 100 µM (inactive)
GI50 (RXF 393): 16.6 µM (inactive)
GI50 (SF-268): 30.3 µM (inactive)
GI50 (SF-295): 16.4 µM (inactive)
GI50 (SK-MEL-28): > 100 µM (inactive)
GI50 (SK-MEL-5): > 100 µM (inactive)
GI50 (SK-OV-3): 35.8 µM (inactive)
GI50 (SN12C): > 100 µM (inactive)
GI50 (SNB-19): 39 µM (inactive)
GI50 (SNB-75): 23.6 µM (inactive)
GI50 (SR): 30.2 µM (inactive)
GI50 (T47D): 72.6 µM (inactive)
GI50 (TK-10): 56.6 µM (inactive)
GI50 (U-251): 47.1 µM (inactive)
GI50 (UACC-257): > 100 µM (inactive)
GI50 (UACC-62): > 100 µM (inactive)
GI50 (UO-31): > 100 µM (inactive)
